Data as given in ChEMBL document CHEMBL1201862, “PubChem BioAssay data set” (2004).
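Exposure lasted 48 hours, with cells grown in 96-well plates and compounds tested at five concentrations. GI50 = concentration required for 50% inhibition of growth.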 Active and inactive are the calls of the source. Cut-off read from the data, not from the text of the source: active = GI50 up to about 1.1 µM and inactive = higher.

Key:
Experiment in all cases: DTP human tumour cell line panel, 48 h
HCT-116 = system: HCT-116
HOP-92 = system: HOP-92
SK-MEL-5 = system: SK-MEL-5
ACHN = system: ACHN
LOX IMVI = system: LOX IMVI
KM12 = system: KM12
DU-145 = system: DU-145
UACC-62 = system: UACC-62
SR = system: SR
CAKI-1 = system: CAKI-1
SF-268 = system: SF-268
NCI-H226 = system: NCI-H226
SNB-75 = system: SNB-75
Malme-3M = system: Malme-3M
NCI/ADR-RES = system: NCI/ADR-RES
RXF 393 = system: RXF 393
UACC-257 = system: UACC-257
MDA-MB-231 = system: MDA-MB-231
COLO 205 = system: COLO 205
HCC 2998 = system: HCC 2998

Measured: GI50

CCn1c(-c2c(Cl)cc(O)cc2Cl)cc2c(Cl)cc(O)cc21
inactive: HCT-116 4.26 µM | HOP-92 13.8 µM | SK-MEL-5 3.21 µM | ACHN 4.66 µM | LOX IMVI 6.38 µM | KM12 5.07 µM | DU-145 4.48 µM | UACC-62 8.49 µM | SR 5.45 µM | CAKI-1 6.14 µM | SF-268 2.88 µM | NCI-H226 26.4 µM | SNB-75 4.18 µM | Malme-3M 14 µM | NCI/ADR-RES 5.13 µM | RXF 393 2.33 µM | UACC-257 11.7 µM | MDA-MB-231 5.9 µM | COLO 205 15.2 µM

CCOC(=O)c1c(SCCN2CCCCC2)n(-c2ccccc2)c(=S)n(-c2ccccc2)c1=O
inactive: HCT-116 2.18 µM | HOP-92 16.3 µM | SK-MEL-5 15.6 µM | ACHN 17.7 µM | LOX IMVI 12.8 µM | HCC 2998 > 38.9 µM | KM12 19 µM | DU-145 29.6 µM | UACC-62 25.8 µM | SR 2.72 µM | SF-268 28.6 µM | NCI-H226 12.3 µM | SNB-75 15 µM | Malme-3M 16.4 µM | NCI/ADR-RES 21.2 µM | RXF 393 13 µM | UACC-257 12.4 µM | MDA-MB-231 21.2 µM | COLO 205 11.7 µM

CS(=O)(=O)N1CC(CCl)c2ccc([N+](=O)[O-])cc21 (configuration not stated)
active: SNB-75 < 0.01 µM
inactive: HCT-116 > 100 µM | HOP-92 > 100 µM | SK-MEL-5 > 100 µM | ACHN > 100 µM | LOX IMVI > 100 µM | HCC 2998 > 100 µM | KM12 > 100 µM | DU-145 > 100 µM | UACC-62 > 100 µM | SR > 100 µM | CAKI-1 > 100 µM | SF-268 > 100 µM | NCI-H226 > 100 µM | Malme-3M > 100 µM | NCI/ADR-RES > 100 µM | RXF 393 > 100 µM | UACC-257 > 100 µM | MDA-MB-231 > 100 µM | COLO 205 > 100 µM

COc1cc(OC)c2c(O)c(S(=O)(=O)c3ccc(C)cc3)c(=O)oc2c1
inactive: HCT-116 77.8 µM | HOP-92 > 100 µM | SK-MEL-5 > 100 µM | ACHN > 100 µM | HCC 2998 > 100 µM | KM12 92.5 µM | DU-145 > 100 µM | UACC-62 > 100 µM | SR > 100 µM | CAKI-1 > 100 µM | SF-268 > 100 µM | NCI-H226 > 100 µM | SNB-75 > 100 µM | Malme-3M > 100 µM | NCI/ADR-RES > 100 µM | RXF 393 > 100 µM | UACC-257 > 100 µM | MDA-MB-231 > 100 µM | COLO 205 > 100 µM

COC(=S)OC1CC(n2cnc3c(=O)[nH]cnc32)OC1CO[Si](C)(C)C(C)(C)C (configuration not stated)
inactive: HCT-116 > 100 µM | HOP-92 > 100 µM | SK-MEL-5 > 100 µM | ACHN > 100 µM | LOX IMVI > 100 µM | KM12 > 100 µM | DU-145 > 100 µM | UACC-62 > 100 µM | SR > 100 µM | CAKI-1 > 100 µM | SF-268 > 100 µM | NCI-H226 > 100 µM | SNB-75 > 100 µM | Malme-3M > 100 µM | NCI/ADR-RES > 100 µM | RXF 393 > 100 µM | UACC-257 > 100 µM | MDA-MB-231 > 100 µM | COLO 205 > 100 µM

CCOC(=O)C(CCN1CCC2(CC1)C(=O)N(C)CN2c1ccccc1)C(=O)OCC
inactive: HCT-116 > 100 µM | HOP-92 > 100 µM | SK-MEL-5 > 100 µM | ACHN > 100 µM | LOX IMVI > 100 µM | HCC 2998 57.7 µM | KM12 > 100 µM | DU-145 > 100 µM | UACC-62 > 100 µM | SR > 100 µM | CAKI-1 > 100 µM | SF-268 > 100 µM | NCI-H226 > 100 µM | SNB-75 > 100 µM | Malme-3M > 100 µM | NCI/ADR-RES > 100 µM | RXF 393 > 100 µM | UACC-257 > 100 µM | MDA-MB-231 > 100 µM | COLO 205 > 100 µM

Clc1ccc(-c2cn3c(nc4ccccc43)c(/C=C/c3ccco3)n2)cc1
inactive: HCT-116 41.8 µM | HOP-92 16.5 µM | SK-MEL-5 33.9 µM | ACHN 37.9 µM | LOX IMVI 33 µM | HCC 2998 22.2 µM | KM12 29.5 µM | DU-145 75.7 µM | UACC-62 41.8 µM | SR 17.9 µM | SF-268 27.7 µM | NCI-H226 > 100 µM | SNB-75 18.4 µM | Malme-3M 70.3 µM | NCI/ADR-RES 42.1 µM | RXF 393 33.7 µM | UACC-257 50.6 µM | MDA-MB-231 28.4 µM | COLO 205 41.7 µM

O=C1c2cc(Cc3ccccc3)c(=O)c(Cc3ccccc3)cc2C(=O)c2cc(Cc3ccccc3)c(=O)c(Cc3ccccc3)cc21
inactive: HCT-116 > 100 µM | HOP-92 > 100 µM | SK-MEL-5 > 100 µM | ACHN > 100 µM | LOX IMVI > 100 µM | HCC 2998 > 100 µM | KM12 > 100 µM | DU-145 > 100 µM | SR > 100 µM | CAKI-1 > 100 µM | SF-268 > 100 µM | NCI-H226 > 100 µM | SNB-75 > 100 µM | Malme-3M > 100 µM | NCI/ADR-RES > 100 µM | RXF 393 24.4 µM | UACC-257 > 100 µM | MDA-MB-231 > 100 µM | COLO 205 > 100 µM

CCN(CC)CCCNc1nc2ccccc2[n+]([O-])n1
inactive: HCT-116 > 100 µM | HOP-92 > 100 µM | SK-MEL-5 > 100 µM | ACHN > 100 µM | HCC 2998 > 100 µM | KM12 > 100 µM | DU-145 > 100 µM | UACC-62 > 100 µM | SR > 100 µM | CAKI-1 > 100 µM | SF-268 > 100 µM | NCI-H226 > 100 µM | SNB-75 64.1 µM | Malme-3M > 100 µM | NCI/ADR-RES > 100 µM | RXF 393 > 100 µM | UACC-257 > 100 µM | MDA-MB-231 > 100 µM | COLO 205 > 100 µM

C/C(=C\COc1cc(O)c2c(c1)C(=O)c1cc(C)cc(O)c1C2=O)CCC1OC1(C)C (configuration not stated)
inactive: HCT-116 77.8 µM | HOP-92 29.4 µM | SK-MEL-5 31.2 µM | ACHN 40.9 µM | LOX IMVI > 100 µM | HCC 2998 > 100 µM | KM12 > 100 µM | DU-145 > 100 µM | UACC-62 40.3 µM | SR 13.9 µM | CAKI-1 21 µM | SF-268 42.3 µM | SNB-75 28.2 µM | Malme-3M > 100 µM | NCI/ADR-RES > 100 µM | RXF 393 30.2 µM | UACC-257 > 100 µM | MDA-MB-231 > 100 µM | COLO 205 > 100 µM
